Like-named read-outs stand apart in the source and are kept apart here.
Tested on: RSV A2 strain
Assay: In vitro CPE (CytoPathic Effect) inhibition effect evaluation test, RSV type A
Assay type: cell-based
Protocol: The test sample is diluted in advance to an appropriate concentration with DMSO, and 3-fold series of serial dilutions were prepared on a 384-well plate (0.32 μL/well). HEp-2 cells (CCL-23; ATCC) adjusted at appropriate number (2.4×10^5 cells/mL) in 2% FBS E-MEM (prepared by adding kanamycin and FBS to Eagle's Minimum Essential Medium; Invitrogen) were added at 12.5 μL/well to the 384-well plate previously aliquoted with the test samples. The RSV A2 strain was diluted to an appropriate concentration in a culture medium and added to the 384-well plate containing the test sample at 12.5 μL/well. The culture medium was added additionally to the 384-well plate, and the test was started with 50 μL/well. Control wells were prepared with only virus-free culture medium. The plate was incubated in a 5% CO2 incubator at 37° C. for 4 days, and the plate was then placed at room temperature for 30 minutes. CellTiter-Glo (registered trademark) 2.0 assay (Promega) was added at 15 μL/well, mixed for 30 seconds, and the plate was placed for approximately 1 hour. The luminescent signal was then measured by EnVision (PerkinElmer). The inhibitory effect of the test agents on RSV-induced CPE was calculated as 0% and 100% inhibition rate for each sample concentration based on the level of remaining viable cells by CellTiter-Glo (registered trademark) 2.0, with the EC50 value for each compound calculated by nonlinear regression as the concentration that inhibits RSV-induced CPE by 50%. In the case of evaluation against RSV type B, RSV B (Wash/18537 strain) was infected in the same manner as the type A, cultured for 5 days, and quantitated in the same manner as for the A2 strain.

[1] = human respiratory syncytial virus, inhibitory effect against RSV type A (RSV A2 strain), HEp-2 cells, CPE inhibition, read-out: EC50
[2] = inhibitory effect against RSV type A (RSV A2 strain), HEp-2 cells, CPE inhibition, read-out: EC50
[3] = human respiratory syncytial virus, HEp-2

Row | Compound | EC50 [1] | also measured
1 | O=C(NC1(C(=O)O)C2CC3CC(C2)CC1C3)c1cnc(-c2cn(C3CCC(F)(F)CC3)c3cc(OC4CCC(N5CCC(F)(F)C5)CC4)ccc23)nc1C(F)(F)F (single isomer, unassigned) [Compound I-427] | < 10 nM | 
2 | O=C(NC1(C(=O)O)C2CC3CC(C2)CC1C3)c1cnc(-c2cn(C3CCC(F)CC3)c3cc(O[C@H]4CC[C@H](N5CC(F)(F)C5)CC4)ccc23)nc1C(F)(F)F (single isomer, unassigned) [Compound I-510] |  | EC50 [2]: < 10 nM
3 | CC(F)(F)c1nc(-c2cn(C3CCC(F)CC3)c3cc(O[C@H]4CC[C@H](N5CC(F)(F)C5)CC4)ccc23)ncc1C(=O)NC1(C(=O)O)C2CC3CC(C2)CC1C3 (single isomer, unassigned) [Compound I-571] |  | EC50 [2]: < 10 nM
4 | O=C(NC1(C(=O)O)C2CC3CC(C2)CC1C3)c1ccc(-c2cn(C3CCC(F)CC3)c3cc(O[C@H]4CC[C@H](N5CC(F)(F)C5)CC4)ccc23)nc1C(F)(F)F (single isomer, unassigned) [Compound I-584] |  | EC50 [2]: < 10 nM
5 | CC(=O)OCCCCOc1ccc2c(c1)CCN2c1ncc(C(=O)NC2(C(=O)O)CCCCC2)c(C(F)(F)F)n1 [Compound I-6] | 10 to 100 nM | 
6 | O=C(NC1(C(=O)O)CCCCC1)c1cnc(N2CC3(CC3)c3cc(Br)ccc32)nc1C(F)(F)F [Compound I-10] | 100 to 5000 nM | 
7 | COCCCCOc1ccc2c(c1)CCN2c1ncc(C(=O)NC2(C(=O)O)CC3CCC2C3)c(C(F)(F)F)n1 (stereo not drawn) [Compound I-11] | < 10 nM | 
8 | O=C(NC1(C(=O)O)CC2CCC1C2)c1cnc(N2CCc3cc(OCCC4CCOCC4)ccc32)nc1C(F)(F)F (stereo not drawn) [Compound I-12] | < 10 nM | 
9 | COc1cccc(COc2ccc3c(c2)CCN3c2ncc(C(=O)NC3(C(=O)O)CC4CCC3C4)c(C(F)(F)F)n2)c1 (stereo not drawn) [Compound I-13] | < 10 nM | 
10 | COc1cccc(COc2ccc3c(c2)CCN3c2ncc(C(=O)NC3(C(=O)O)CCOCC3)c(C(F)(F)F)n2)c1 [Compound I-14] | 100 to 5000 nM | 
11 | COc1ccc(COc2ccc3c(c2)CCN3c2ncc(C(=O)NC3(C(=O)O)CCOCC3)c(C(F)(F)F)n2)cc1 [Compound I-15] | 10 to 100 nM | 
12 | O=C(NC1(C(=O)O)CCC(F)(F)CC1)c1cnc(N2CCc3cc(OCCC4CCOCC4)ccc32)nc1C(F)(F)F [Compound I-20] | 10 to 100 nM | 
13 | COCCCCOc1ccc2c(c1)CCN2c1ncc(C(=O)NC2(C(=O)O)C3CC4CC(C3)CC2C4)c(C(F)(F)F)n1 (stereo not drawn) [Compound I-22] | < 10 nM | 
14 | COc1cccc(/C=C/c2ccc3c(c2)CCN3c2ncc(C(=O)NC3(C(=O)O)CCCCC3)c(C(F)(F)F)n2)c1 [Compound I-24] | 10 to 100 nM | 
15 | COc1ccc(CCc2ccc3c(c2)CCN3c2ncc(C(=O)NC3(C(=O)O)CCCCC3)c(C(F)(F)F)n2)cc1 [Compound I-25] | 10 to 100 nM | 
16 | COc1cccc(CCc2ccc3c(c2)CCN3c2ncc(C(=O)NC3(C(=O)O)CCCCC3)c(C(F)(F)F)n2)c1 [Compound I-26] | 10 to 100 nM | 
17 | COc1cc(COc2ccc3c(c2)CCN3c2ncc(C(=O)NC3(C(=O)O)CCCCC3)c(C(F)(F)F)n2)ccn1 [Compound I-27] |  | EC50 [3]: 10 to 100 nM
18 | Cc1nc(COc2ccc3c(c2)CCN3c2ncc(C(=O)NC3(C(=O)O)CCCCC3)c(C(F)(F)F)n2)cs1 [Compound I-28] | 10 to 100 nM | 
19 | COc1cc(COc2ccc3c(c2)CCN3c2ncc(C(=O)NC3(C(=O)O)CCCCC3)c(C(F)(F)F)n2)cc(OC)c1 [Compound I-29] | < 10 nM | 
20 | COc1cncc(COc2ccc3c(c2)CCN3c2ncc(C(=O)NC3(C(=O)O)CCCCC3)c(C(F)(F)F)n2)c1 [Compound I-30] | 10 to 100 nM | 
21 | CC(C)(C)OC(=O)N1CCC(Oc2ccc3c(c2)CCN3c2ncc(C(=O)NC3(C(=O)O)CCCCC3)c(C(F)(F)F)n2)CC1 [Compound I-32] | 10 to 100 nM | 
22 | O=C(NC1(C(=O)O)CCCCC1)c1cnc(N2CCc3cc(OC4CCN(CC(F)(F)F)CC4)ccc32)nc1C(F)(F)F [Compound I-34] | < 10 nM | 
23 | CN(C)S(=O)(=O)NC(=O)C1(NC(=O)c2cnc(N3CCc4cc(OCCC5CCOCC5)ccc43)nc2C(F)(F)F)CCCCC1 [Compound I-35] | 10 to 100 nM | 
24 | Cc1csc(COc2ccc3c(c2)CCN3c2ncc(C(=O)NC3(C(=O)O)CCCCC3)c(C(F)(F)F)n2)n1 [Compound I-37] | < 10 nM | 
25 | O=C(NC1(C(=O)NS(=O)(=O)N2CCOCC2)CCCCC1)c1cnc(N2CCc3cc(OCCC4CCOCC4)ccc32)nc1C(F)(F)F [Compound I-38] | 10 to 100 nM | 
26 | COc1cccc(C(=O)Nc2ccc3c(c2)CCN3c2ncc(C(=O)NC3(C(=O)O)CCCCC3)c(C(F)(F)F)n2)c1 [Compound I-39] | 10 to 100 nM | 
27 | COc1cccc(CNc2ccc3c(c2)CCN3c2ncc(C(=O)NC3(C(=O)O)CCCCC3)c(C(F)(F)F)n2)c1 [Compound I-40] | < 10 nM | 

Row | Compound | EC50 [1] | also measured
28 | O=C(NC1(C(=O)O)CCCCC1)c1cnc(N2CCc3cc(OC4CCN(c5ccccn5)CC4)ccc32)nc1C(F)(F)F [Compound I-41] | < 10 nM | 
29 | O=C(NC1(C(=O)O)CCCCC1)c1cnc(N2CCc3cc(OC4CCN(c5nccs5)CC4)ccc32)nc1C(F)(F)F [Compound I-42] | < 10 nM | 
30 | Cc1nsc(COc2ccc3c(c2)CCN3c2ncc(C(=O)NC3(C(=O)O)CCCCC3)c(C(F)(F)F)n2)n1 [Compound I-43] | 10 to 100 nM | 
31 | O=C(NC1(C(=O)O)CCCCC1)c1cnc(N2CC3(CC3)c3cc(OCCC4CCOCC4)ccc32)nc1C(F)(F)F [Compound I-44] | 10 to 100 nM | 
32 | O=C(NC1(C(=O)O)CCC1)c1cnc(N2CCc3cc(OC4CCN(c5ncccn5)CC4)ccc32)nc1C(F)(F)F [Compound I-46] | 10 to 100 nM | 
33 | O=C(NC1(C(=O)O)CCOCC1)c1cnc(N2CCc3cc(OC4CCN(c5ncccn5)CC4)ccc32)nc1C(F)(F)F [Compound I-47] | 10 to 100 nM | 
34 | O=C(NC1(C(=O)O)CCCC1)c1cnc(N2CCc3cc(OC4CCN(c5ncccn5)CC4)ccc32)nc1C(F)(F)F [Compound I-48] | < 10 nM | 
35 | O=C(NC1(C(=O)O)CCC(F)(F)CC1)c1cnc(N2CCc3cc(OC4CCN(c5ncccn5)CC4)ccc32)nc1C(F)(F)F [Compound I-49] | 10 to 100 nM | 
36 | O=C(NC1(C(=O)O)CCCCC1)c1cnc(N2CCc3cc(OC4CCN(c5cccnc5)CC4)ccc32)nc1C(F)(F)F [Compound I-51] | 10 to 100 nM | 
37 | O=C(NC1(C(=O)O)CCCCC1)c1cnc(N2CCc3cc(OCCNc4ncccn4)ccc32)nc1C(F)(F)F [Compound I-52] | 10 to 100 nM | 
38 | CC1(C)CN(c2ncc(C(=O)NC3(C(=O)O)CCCCC3)c(C(F)(F)F)n2)c2ccc(OCCC3CCOCC3)cc21 [Compound I-54] | < 10 nM | 
39 | O=C(NC1(C(=O)O)CCCCC1)c1cnc(N2CC3(CCCCC3)c3cc(OCCC4CCOCC4)ccc32)nc1C(F)(F)F [Compound I-55] | < 10 nM | 
40 | CCc1nc(COc2ccc3c(c2)CCN3c2ncc(C(=O)NC3(C(=O)O)CCCCC3)c(C(F)(F)F)n2)cs1 [Compound I-59] | 10 to 100 nM | 
41 | O=C(NC1(C(=O)O)CCCCC1)c1cnc(N2CC3(CCN(C(=O)OCc4ccccc4)CC3)c3cc(OCCC4CCOCC4)ccc32)nc1C(F)(F)F [Compound I-61] | < 10 nM | 
42 | CN1CCC2(CC1)CN(c1ncc(C(=O)NC3(C(=O)O)CCCCC3)c(C(F)(F)F)n1)c1ccc(OCCC3CCOCC3)cc12 [Compound I-62] |  | EC50 [3]: < 10 nM
43 | O=C(NC1(C(=O)O)CCCCC1)c1cnc(N2CC3(CCN(C4CCC4)CC3)c3cc(OCCC4CCOCC4)ccc32)nc1C(F)(F)F [Compound I-63] |  | EC50 [3]: < 10 nM
44 | CC(=O)N1CCC(Oc2ccc3c(c2)CCN3c2ncc(C(=O)NC3(C(=O)O)CCCCC3)c(C(F)(F)F)n2)CC1 [Compound I-64] | 100 to 5000 nM | 
45 | CC(C)C(=O)N1CCC(Oc2ccc3c(c2)CCN3c2ncc(C(=O)NC3(C(=O)O)CCCCC3)c(C(F)(F)F)n2)CC1 [Compound I-65] | 10 to 100 nM | 
46 | O=C(NC1(C(=O)O)CCCCC1)c1cnc(N2CCc3cc(NC4CCN(c5ncccn5)CC4)ccc32)nc1C(F)(F)F [Compound I-67] | 10 to 100 nM | 
47 | COc1ccc2c(c1)CCN2c1ncc(C(=O)NC2(C(=O)O)C3CC4CC(C3)CC2C4)c(C(F)(F)F)n1 (stereo not drawn) [Compound I-68] |  | EC50 [2]: 10 to 100 nM
48 | O=C(NC1(C(=O)O)CCCCC1)c1cnc(N2CCc3cc(OC4CCN(c5nccc(=O)[nH]5)CC4)ccc32)nc1C(F)(F)F [Compound I-69] | 100 to 5000 nM | 
49 | O=C(NC1(C(=O)O)CCCCC1)c1cnc(N2CCc3cc(C4=CCCN(Cc5ccccc5)C4)ccc32)nc1C(F)(F)F [Compound I-70] | 10 to 100 nM | 
50 | O=C(NC1(C(=O)O)CCCCC1)c1cnc(N2CCc3cc(C4=CCCN(c5ncccn5)C4)ccc32)nc1C(F)(F)F [Compound I-71] | < 10 nM | 
51 | O=C(NC1(C(=O)O)CCCCC1)c1cnc(N2CCc3cc(O[C@@H]4CCN(c5ncccn5)C4)ccc32)nc1C(F)(F)F [Compound I-74] | < 10 nM | 
52 | Cc1cnn(CCOc2ccc3c(c2)CCN3c2ncc(C(=O)NC3(C(=O)O)CCCCC3)c(C(F)(F)F)n2)c1 [Compound I-75] | 10 to 100 nM | 
53 | COc1ccc2c(c1)C1(CCOCC1)CN2c1ncc(C(=O)NC2(C(=O)O)CCCCC2)c(C(F)(F)F)n1 [Compound I-76] | 10 to 100 nM | 
54 | COc1cccnc1N1CCC(Oc2ccc3c(c2)CCN3c2ncc(C(=O)NC3(C(=O)O)CCCCC3)c(C(F)(F)F)n2)CC1 [Compound I-77] | < 10 nM | 

Reference: patent US12528790B2, “Amide derivative having antiviral activity” (Shionogi & Co., Ltd., priority 2020, dated 2026)
